Results on three molecules are retold here after ChEMBL document CHEMBL5209578, “Flow cytometry transport assay for SLC2A2 using HEK293 JumpIN TRex SLC2A2 WT-OE cells” (2022).

Molecules are shown by their SMILES.

The target of the test is T1, Solute carrier family 2, facilitated glucose transporter member 2 (Homo sapiens, UniProt P11168).
T1 sequence (P11168 whole entry): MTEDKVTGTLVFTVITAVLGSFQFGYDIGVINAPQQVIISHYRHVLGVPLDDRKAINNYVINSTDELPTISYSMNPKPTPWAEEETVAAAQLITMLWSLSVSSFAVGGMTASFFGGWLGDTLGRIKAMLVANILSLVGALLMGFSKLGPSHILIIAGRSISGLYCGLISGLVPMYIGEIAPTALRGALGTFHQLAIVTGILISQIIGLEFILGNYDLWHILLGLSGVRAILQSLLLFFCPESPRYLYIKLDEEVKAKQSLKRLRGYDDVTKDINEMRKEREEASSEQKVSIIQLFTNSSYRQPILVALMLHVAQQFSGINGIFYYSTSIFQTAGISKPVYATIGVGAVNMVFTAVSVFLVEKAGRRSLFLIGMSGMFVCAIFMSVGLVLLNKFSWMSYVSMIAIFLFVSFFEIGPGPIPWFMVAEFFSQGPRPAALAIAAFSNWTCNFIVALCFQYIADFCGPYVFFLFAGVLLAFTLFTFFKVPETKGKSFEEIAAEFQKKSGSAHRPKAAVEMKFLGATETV
The experiment in a line: Inhibition of the Glucose Transporter (GLUT2, SLC2A2) as assessed by a FRET based flow cytometry assay using a genetically-encoded biosensor for measuring free glucose (FLII12Pglu-700uDelta6) in HEK293 JumpIN TRex SLC2A2 WT-OE cells (PubChem AID: 1794829). The test is classed as functional, cell-based. Background: A flow cytometer gives signals particle by particle.

One may read the IC50 as the point on the concentration scale where inhibition reaches its midpoint. In turn, `O=C(Oc1cccc(F)c1OC(=O)c1cccc(O)c1)c1cccc(O)c1` returned an IC50 of more than 10 µM. Same read-out and setting: next, `C=C1[C@@H](C)[C@H]2[C@H](Cc3ccccc3)NC(=O)[C@]23OC(=O)/C=C/[C@H](O)CCC[C@@H](C)C/C=C/[C@H]3[C@@H]1O` [CYTOCHALASIN B]: more than 10 µM. Usually EC50 stands for the concentration needed to bring the measured effect to its halfway point. Consider `OC[C@H]1OC(O)[C@H](O)[C@@H](O)[C@@H]1O` (stereo partly drawn) [DEXTROSE], for which it took 527 µM to reach a half-maximal effect (EC50).
